{"source": "patent US20240076742A1", "about": "“METHODS FOR IMPROVED CANCER TREATMENT” (CELLPHENOMICS GMBH, priority 2020, published 2024)", "test_system": "colorectal cancer tumor cells with the SMAD4^R361H mutation", "test": "Cell viability (CellTiterGlo) of patient-derived colorectal tumor cells in Matrigel, SMAD4 R361H", "format": "cell-based", "conditions": "Homo sapiens, 96 h, SMAD4^R361H loss-of-function mutation, 4-day treatment, FIG. 4, read-out: trametinib concentration at which tumor cell viability decreases below the IC50", "description": "The mean inhibitory concentration, further referred to as IC50, is the concentration of an inhibitor at which half-maximal inhibition is observed. […] For the experiment, the biological tumor samples were dissociated by incubation with TrypLE Express solution (ThermoFisher Scientific, Germany) and 1.5×10^3 cells per well were seeded in four replicates in Matrigel and overlaid with culture medium. After 3-day incubation at 37° C. in 5% CO2, medium was removed and fresh medium containing trametinib was added. Trametinib was tested in four 1:5 dilution concentrations. Following concentrations were tested: 0.1 μg/ml, 0.02 μg/ml, 0.004 μg/ml and 0.0008 μg/ml. Cells treated with DMSO were used as control while Matrigel only was used for background readout. Staurosporine was used as internal positive control. After 4-day treatment, cell viability was determined by CellTiterGlo® assay. Cell plating, treatment and testing were handled by Biomek FXP Liquid Handler (Beckman Coulter)."}
{"compound": "CC(=O)Nc1cccc(-n2c(=O)n(C3CC3)c(=O)c3c(Nc4ccc(I)cc4F)n(C)c(=O)c(C)c32)c1", "note": "[trametinib, N-(3-{3-Cyclopropyl-5-[(2-fluor-4-iodphenyl)amino]-6,8-dimethyl-2,4,7-trioxo-3,4,6,7-tetrahydropyrido[4,3-d]pyrimidin-1(2H)-yl}phenyl)acetamid]", "values": [{"measurement": "IC50", "value": 6, "unit": "ng/mL"}]}
